What was measured:
fetal hemoglobin protein = test: HbF HPLC Cell Culture Assay; format: cell-based; conditions: for Hemoglobin HPLC Ymax obs (%): relative to a control compound; for EC50: 336 h, HbF induction, Day 14 of culture
Method: A Cell Culture Assay was performed to evaluate the ability of compounds to induce fetal hemoglobin in a cell culture. The amount fetal hemoglobin protein induced was measured by HPLC.
Cell culture began on Day −4 (thaw day). Thaw buffer was prepared by sterile filtering 6 mL of Human Serum Albumin and 144 mL of PBS to make sterile 1% I/PBS. Cells were removed from liquid nitrogen storage and mostly thawed in a 37° C. water bath. Once the ice in the cryovials was melted, cells were transferred quickly into a 50 mL conical tube. Cryovial was rinsed once with thaw buffer and buffer was transferred over to the conical tube as well. Next, doubling volumes of thaw buffer was added to the conical and gently swirled for ˜30 seconds to one minute (for example: 2 mL was added and swirled, then 4 mL, then 8 mL, and so on) until the volume in the conical is 32 mL. Cells and buffer were centrifuged at 300G for 8 minutes, and the supernatant was aspirated. Another 32 mL of thaw buffer was added slowly, swirling the tube. The tube was again centrifuged at 300G for 8 minutes and the supernatant was aspirated. Cells were counted by resuspending in 1 mL of expansion media and counting with AOPI to determine the concentration of cells/mL.
On day 2, Passage & Treatment Day, each cell culture well was counted. Next fresh CD34 Expansion Media was made which contained StemSpan SFEM, CC100 and TPO all from StemCell technologies. Appropriate volume of cells was collected, centrifuged at 300 g and resuspended in fresh media. Cells were plated in treatment format at a density of 200,000 cells/ml, 25,000 cells/well. Finally, they were treated with test compounds as well as positive and negative controls.
On Days 0, 3 & 5 the same process was carried out. First, each cell culture well was counted. Next Phase 1 Erythroid Differentiation Media was freshly made, which contained StemSpan SFEM, 2.5 U/ml EPO, 0.5 mg/ml Holo-TF, 1× Glutamax, 5 μl/ml chemically defined lipid mixture, 10 ng/ml insulin, 50 ng/ml SCF, 10 ng/ml IL-3. Appropriate volume of cells was collected, centrifuged at 300 g and resuspended in fresh media. Cells should now be in fresh wells at a density of 100,000 cells/ml. 60,000 cells, 60,000 cells and 100,000 cells for days 0, 3, 5 respectively. Finally, fresh compound was added to each well at each timepoint (Days 0, 3 & 5).
On Day 7 media and cell culture density changes. Each cell culture well was counted. Next, Phase 2 Erythroid Differentiation Media was freshly made, which contains StemSpan SFEM, 2.5 U/ml EPO, 0.5 mg/ml Holo-TF, 1× Glutamax, 5 μl/ml chemically defined lipid mixture, 10 ng/ml insulin, 50 ng/ml SCF. Appropriate volume of cells was collected, centrifuged at 300 g and resuspended in fresh media. Cells were plated in fresh wells at a density of 500,000 cells/ml, 300,000 cells/well. Finally, fresh compound was added to each well at Day 7 timepoint.
On Day 10 media formulation is once again changed. Each cell culture well was counted. Fresh Phase 3 Erythroid Differentiation Media was made which contains StemSpan SFEM, 2.5 U/ml EPO, 0.5 mg/ml Holo-TF, 1× Glutamax, 5 μl/ml chemically defined lipid mixture, 10 ng/ml insulin. Appropriate volume of cells was collected, centrifuged at 300 g and resuspended in fresh media. Cells were plated in fresh wells at a density of 500,000 cells/ml, 500,000 cells/well. Finally, fresh compound was added to each well at Day 10 timepoint.
On Day 12 the cell density is once again changed. Each cell culture well was counted. Fresh Phase 3 Erythroid Differentiation Media was made. Appropriate volume of cells was collected, centrifuged at 300 g and resuspended in fresh media. Cells were plated in fresh wells at a density of 1,000,000 cells/ml, 1,000,000 cells/well. Finally fresh compound was added to each well.
Day 14 (18th day of experiment) refers to the terminal day of culture. Each cell culture well was counted. Next between 150K and 650K cells were placed in a uniquely labeled 1.5 ml standard tube. […]

DCN1 protein = DCN1 protein (Homo sapiens (Human), UniProt Q96GG9); test: Intact Protein MS Analysis with the RapidFire-TOF System (covalent adduct formation); format: binding; conditions: MS Emax; 400 nM DCN1, 3 hours at room temperature
Sequence of DCN1 protein (Q96GG9 whole entry): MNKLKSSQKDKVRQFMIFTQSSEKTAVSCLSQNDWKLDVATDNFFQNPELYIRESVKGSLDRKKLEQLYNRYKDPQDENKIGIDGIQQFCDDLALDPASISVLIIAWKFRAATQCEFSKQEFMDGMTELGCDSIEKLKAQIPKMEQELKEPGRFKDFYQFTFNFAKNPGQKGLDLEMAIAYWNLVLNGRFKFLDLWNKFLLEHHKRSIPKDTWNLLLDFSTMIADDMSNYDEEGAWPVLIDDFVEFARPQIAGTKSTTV
Outline: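 Tag-cleaved human DCN1 (400 nM) expressed in E. coli, in 25 mM Tris-HCl, 200 mM NaCl, 1 mM DTT, was incubated with 11 compound concentrations for 3 h at room temperature and quenched with 0.2% formic acid. Intact-protein Q-TOF MS with deconvolution detected the compound adduct mass.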

[1] = tested on: Cullin-3 (CUL3) neddylation; test: AlphaLISA assay for Cullin-3 (CUL3) neddylation in TF 1 cells; format: cell-based; conditions: 3 hours treatment
Outline: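 Neddylated CUL3 was quantified by AlphaLISA in lysates of TF 1 cells exposed for 3 h to test compound in IMDM without supplements. Percent inhibition set between vehicle and 1 μM DI-1548 positive control; IC50 derived by Hill-equation fitting of dose-response curves.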

Structure (SMILES) | Hemoglobin HPLC Ymax obs (%) (fetal hemoglobin protein) | % Adduct Formation (DCN1 protein) | IC50 ([1]; Homo sapiens, TF-1, 3 h) [nM] | EC50 (fetal hemoglobin protein) [nM] | IC50 [1] [nM]
CCN1C(=O)[C@@H](NC(=O)c2cccc(C(F)(F)F)c2)[C@@H](c2ccc(F)cc2)c2c(C(=O)N3CCC[C@H]3C#N)nn(-c3ccccc3)c21 (mixture of isomers) [Compound I-34] | ++ (Hemoglobin HPLC Ymax greater than 65.0 and less than or equal to 100.0) | +++ (MS Emax % adduct formation greater than 80.0 and less than or equal to 100.0) |  |  | 
CCN1C(=O)[C@@H](NC(=O)c2cccc(C(F)(F)F)c2)[C@@H](C2CC2)c2c(C(=O)N3CCS(=O)(=O)C[C@H]3C#N)nn(C3CCOCC3)c21 (mixture of isomers) [Compound I-379] |  | +++ (MS Emax % adduct formation greater than 80.0 and less than or equal to 100.0) | ≤ 100 |  | 
CCN1C(=O)[C@@H](NC(=O)c2cccc(C(F)(F)F)c2)[C@@H](c2ccc(F)cc2)c2c(C(=O)N3CS(=O)(=O)C[C@H]3C#N)nn(C3CCOCC3)c21 (mixture of isomers) [Compound I-661, N-((4S,5S)-3-(4-cyano-1,1-dioxidothiazolidine-3-carbonyl)-7-ethyl-4-(4-fluorophenyl)-6-oxo-1-(tetrahydro-2H-pyran-4-yl)-4,5,6,7-tetrahydro-1H-pyrazolo[3,4-b]pyridin-5-yl)-3-(trifluoromethyl)benzamide] | ++ (Hemoglobin HPLC Ymax greater than 65.0 and less than or equal to 100.0) |  | ≤ 100 | > 200 | 
CCN1C(=O)[C@@H](NC(=O)c2cccc(C(F)(F)F)c2)[C@@H](c2ccc(F)cc2)c2c(CNC(=O)/C=C/C(=O)OC)nn(-c3ccccc3)c21 (racemic) [Compound I-3] | ++ (Hemoglobin HPLC Ymax greater than 65.0 and less than or equal to 100.0) | +++ (MS Emax % adduct formation greater than 80.0 and less than or equal to 100.0) | ≤ 100 | 50 to 200 | 
C=C(CN1CCC1)C(=O)NCc1nn(-c2ccccc2)c2c1[C@H](c1ccc(F)cc1)[C@H](NC(=O)c1cccc(C(F)(F)F)c1)C(=O)N2CC (racemic) [Compound I-49, rac-N-((4R,5R)-3-((2-(azetidin-1-ylmethyl)acrylamido)methyl)-7-ethyl-4-(4-fluorophenyl)-6-oxo-1-phenyl-4,5,6,7-tetrahydro-1H-pyrazolo[3,4-b]pyridin-5-yl)-3-(trifluoromethyl)benzamide] | ++ (Hemoglobin HPLC Ymax greater than 65.0 and less than or equal to 100.0) |  | ≤ 100 | ≤ 50 | 
CCN1C(=O)[C@@H](NC(=O)c2cccc(C(F)(F)F)c2)[C@@H](c2ccc(F)cc2)c2c(NC(=O)C3=CCC3)nn(-c3ccccc3)c21 (racemic) [Compound I-152] | ++ (Hemoglobin HPLC Ymax greater than 65.0 and less than or equal to 100.0) | + (MS Emax % adduct formation greater than or equal to 0.0 and less than or equal to 30.0) | 100 to 1000 | > 200 | 
C=C(CN1CCC1)C(=O)NCc1nn(-c2ccccc2)c2c1[C@@H](c1ccc(F)cc1)[C@H](NC(=O)c1cccc(C(F)(F)F)c1)C(=O)N2CC [Compound I-139] | ++ (Hemoglobin HPLC Ymax greater than 65.0 and less than or equal to 100.0) |  | ≤ 100 | ≤ 50 | 
CCN1C(=O)[C@@H](NC(=O)c2cccc(C(F)(F)F)c2)[C@@H](c2ccc(F)cc2)c2c(C(=O)N3CCNC[C@H]3C#N)nn(C3CCOCC3)c21 [Compound I-363, N-((4S,5S)-3-((S)-2-cyanopiperazine-1-carbonyl)-7-ethyl-4-(4-fluorophenyl)-6-oxo-1-(tetrahydro-2H-pyran-4-yl)-4,5,6,7-tetrahydro-1H-pyrazolo[3,4-b]pyridin-5-yl)-3-(trifluoromethyl)benzamide] |  | +++ (MS Emax % adduct formation greater than 80.0 and less than or equal to 100.0) | ≤ 100 |  | 
CCN1C(=O)[C@@H](NC(=O)c2cccc(C(F)(F)F)c2)[C@@H](c2ccc(F)cc2)c2c(C(=O)N(C)[C@@H](C#N)CCN(C)C)nn(C3CCOCC3)c21 [Compound I-369] |  | +++ (MS Emax % adduct formation greater than 80.0 and less than or equal to 100.0) | ≤ 100 |  | 
CCN1C(=O)[C@@H](NC(=O)c2cccc(C(F)(F)F)c2)[C@@H](c2ccc(F)cc2)c2c(C(=O)N(C)[C@H](C#N)CCN(C)C)nn(C3CCOCC3)c21 [Compound I-370] |  | +++ (MS Emax % adduct formation greater than 80.0 and less than or equal to 100.0) | ≤ 100 |  | 
CCN1C(=O)[C@@H](NC(=O)c2cccc(C(F)(F)F)c2)[C@@H](C2CC2)c2c(C(=O)N3CCNC[C@H]3C#N)nn(-c3ccccc3)c21 [Compound I-383] |  | +++ (MS Emax % adduct formation greater than 80.0 and less than or equal to 100.0) | ≤ 100 |  | 
CCN1C(=O)[C@@H](NC(=O)c2cccc(C(F)(F)F)c2)[C@@H](C)c2c(C(=O)N3[C@H](C#N)C[C@H]4C[C@H]43)nn(C3CCOCC3)c21 [Compound I-387] |  | +++ (MS Emax % adduct formation greater than 80.0 and less than or equal to 100.0) |  |  | ≤ 100
CCN1C(=O)[C@@H](NC(=O)c2cccc(C(F)(F)F)c2)[C@@H](C2CC2)c2c(C(=O)N3CC[C@H](OC)[C@H]3C#N)nn(C3CCOCC3)c21 [Compound I-418] | +++ (Hemoglobin HPLC Ymax greater than 100.0) |  | ≤ 100 | ≤ 50 | 
CCN1C(=O)[C@@H](NC(=O)c2cccc(C(F)(F)F)c2)[C@@H](C2CC2)c2c(C(=O)N(C)[C@H](C)C#N)nn(C3CCOCC3)c21 [Compound I-422] | ++ (Hemoglobin HPLC Ymax greater than 65.0 and less than or equal to 100.0) |  | ≤ 100 | 50 to 200 | 
CCc1cccc(C(=O)N[C@@H]2C(=O)N(CC)c3c(c(C(=O)N4[C@H](C#N)C[C@H]5C[C@H]54)nn3C3CCOCC3)[C@@H]2C2CC2)c1 [Compound I-552, N-((4S,5S)-3-((1R,3S,5R)-3-cyano-2-azabicyclo[3.1.0]hexane-2-carbonyl)-4-cyclopropyl-7-ethyl-6-oxo-1-(tetrahydro-2H-pyran-4-yl)-4,5,6,7-tetrahydro-1H-pyrazolo[3,4-b]pyridin-5-yl)-3-ethylbenzamide] |  |  | ≤ 100 |  | 
CCN1C(=O)[C@@H](NC(=O)c2cccc(C(F)(F)F)c2)[C@@H](C2CC2)c2c(C(=O)N3CCNC[C@H]3C#N)nn(C3CCOCC3)c21 [Compound I-582] |  |  | ≤ 100 |  | 
CCN1C(=O)[C@@H](NC(=O)c2cccc(C(F)(F)F)c2)[C@@H](C2CC2)c2c(C(=O)N3CS(=O)(=O)C[C@H]3C#N)nn(C3CCOCC3)c21 [Compound I-617] |  |  | ≤ 100 |  | 
CCN1C(=O)[C@@H](NC(=O)c2cccc(C(F)(F)F)c2)[C@@H](C2CCC2)c2c(C(=O)N3CCC[C@H]3C#N)nn(C3CCOCC3)c21 [Compound I-692] | ++ (Hemoglobin HPLC Ymax greater than 65.0 and less than or equal to 100.0) |  | ≤ 100 | > 200 | 

Source: patent US20250163057A1, “DCN-1 MODULATING COMPOUNDS AND METHODS OF USE THEREOF” (Cellarity, Inc., priority 2023, published 2025)
